# From PubChem BioAssay AID2060892 (Molecular Pharmacology Branch, DTP, NCI, 2025)
# System: HOP-62 complex spheroids with HUVEC/MSC, viability
# Experiment: Anticancer human tumor HOP-62 cell line growth inhibition [RAS];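 note: spheroids exposed to agents for seven days before readout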;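 for viability, T/C: 100% = DMSO vehicle control viability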
# Settings: for IC50: curve of first compound; for viability, T/C: stronger effect = lower value
# Method in brief: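 Tumour cells grown as complex spheroids with HUVEC endothelial cells and mesenchymal stem cells, treated with RAS pathway inhibitor combinations. Each agent spans half-log steps from near clinical Cmax, or 10 microM where Cmax is unknown.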
# [1] = second compound 0.000949 µM, first compound 0.0316 µM
# [2] = second compound 0.000949 µM, first compound 0.1 µM
# [3] = second compound 0.000949 µM, first compound 0.316 µM
# [4] = second compound 0.000949 µM, first compound 1 µM
# [5] = second compound 0.000949 µM, first compound 3.16 µM
# [6] = second compound 0.000949 µM, first compound 10 µM
# [7] = second compound 0.003 µM, first compound 0.0316 µM
# [8] = second compound 0.003 µM, first compound 0.1 µM
# [9] = second compound 0.003 µM, first compound 0.316 µM
# [10] = second compound 0.003 µM, first compound 1 µM
# [11] = second compound 0.003 µM, first compound 3.16 µM
# [12] = second compound 0.003 µM, first compound 10 µM
# [13] = second compound 0.00949 µM, first compound 0.0316 µM
# [14] = second compound 0.00949 µM, first compound 0.1 µM
# [15] = second compound 0.00949 µM, first compound 0.316 µM
# [16] = second compound 0.00949 µM, first compound 1 µM
# [17] = second compound 0.00949 µM, first compound 3.16 µM
# [18] = second compound 0.00949 µM, first compound 10 µM
# [19] = second compound 0.03 µM, first compound 0.0316 µM
# [20] = second compound 0.03 µM, first compound 0.1 µM
# [21] = second compound 0.03 µM, first compound 0.316 µM
# [22] = second compound 0.03 µM, first compound 1 µM
# [23] = second compound 0.03 µM, first compound 3.16 µM
# [24] = second compound 0.03 µM, first compound 10 µM
# [25] = second compound 0.0949 µM, first compound 0.0316 µM
# [26] = second compound 0.0949 µM, first compound 0.1 µM
# [27] = second compound 0.0949 µM, first compound 0.316 µM
# [28] = second compound 0.0949 µM, first compound 1 µM
# [29] = second compound 0.0949 µM, first compound 3.16 µM
# [30] = second compound 0.0949 µM, first compound 10 µM
# [31] = second compound 0.3 µM, first compound 0.0316 µM
# [32] = second compound 0.3 µM, first compound 0.1 µM
# [33] = second compound 0.3 µM, first compound 0.316 µM
# [34] = second compound 0.3 µM, first compound 1 µM
# [35] = second compound 0.3 µM, first compound 3.16 µM
# [36] = second compound 0.3 µM, first compound 10 µM
structure (smiles),measurement,setting,value
NC1c2ccccc2OC12CCN(c1cnc3c(N4CCCc5ncccc54)n[nH]c3n1)CC2 (centres undefined) + CCn1c(-c2cccnc2C(C)OC)c2c3cc(ccc31)N1CCOC(CC(NC(=O)C(C(C)C)N(C)C(=O)C3(F)CCN(C(=O)C#CC(C)(C)N(C)C)CC3)C(=O)N3CCCC(N3)C(=O)OCC(C)(C)C2)C1,IC50,second compound 0.000949 µM,183 nM
same,IC50,second compound 0.003 µM,429 nM
same,IC50,second compound 0.00949 µM,52.7 nM
same,IC50,second compound 0.03 µM,64.6 nM
same,IC50,second compound 0.0949 µM,39.1 nM
same,IC50,second compound 0.3 µM,< 31.6 nM
same,"viability, T/C",[1],91.2%
same,"viability, T/C",[2],70.6%
same,"viability, T/C",[3],27.8%
same,"viability, T/C",[4],44.5%
same,"viability, T/C",[5],33.4%
same,"viability, T/C",[6],19.4%
same,"viability, T/C",[7],69.4%
same,"viability, T/C",[8],48.5%
same,"viability, T/C",[9],60.5%
same,"viability, T/C",[10],23.9%
same,"viability, T/C",[11],19.3%
same,"viability, T/C",[12],9.81%
same,"viability, T/C",[13],60%
same,"viability, T/C",[14],35.3%
same,"viability, T/C",[15],29.6%
same,"viability, T/C",[16],22.7%
same,"viability, T/C",[17],14.8%
same,"viability, T/C",[18],13.2%
same,"viability, T/C",[19],64.1%
same,"viability, T/C",[20],42.1%
same,"viability, T/C",[21],24%
same,"viability, T/C",[22],28.3%
same,"viability, T/C",[23],12%
same,"viability, T/C",[24],14.6%
same,"viability, T/C",[25],53.3%
same,"viability, T/C",[26],35.5%
same,"viability, T/C",[27],20.7%
same,"viability, T/C",[28],16.8%
same,"viability, T/C",[29],11.5%
same,"viability, T/C",[30],14.7%
same,"viability, T/C",[31],44.4%
same,"viability, T/C",[32],28.6%
same,"viability, T/C",[33],18.4%
same,"viability, T/C",[34],15.6%
same,"viability, T/C",[35],13.5%
same,"viability, T/C",[36],15.2%
CC1(O)CCCC1n1c(=O)c(C(F)F)cc2cnc(NC3CCN(S(C)(=O)=O)CC3)nc21 (centres undefined) + CCn1c(-c2cccnc2C(C)OC)c2c3cc(ccc31)N1CCOC(CC(NC(=O)C(C(C)C)N(C)C(=O)C3(F)CCN(C(=O)C#CC(C)(C)N(C)C)CC3)C(=O)N3CCCC(N3)C(=O)OCC(C)(C)C2)C1,IC50,second compound 0.000949 µM,4840 nM
same,IC50,second compound 0.003 µM,4470 nM
same,IC50,second compound 0.00949 µM,3400 nM
same,IC50,second compound 0.03 µM,1170 nM
same,IC50,second compound 0.0949 µM,1630 nM
same,IC50,second compound 0.3 µM,777 nM
same,"viability, T/C",[1],107%
same,"viability, T/C",[2],87.9%
same,"viability, T/C",[3],58%
same,"viability, T/C",[4],86.6%
same,"viability, T/C",[5],77.8%
same,"viability, T/C",[6],2.45%
same,"viability, T/C",[7],94.1%
same,"viability, T/C",[8],65.2%
same,"viability, T/C",[9],54.5%
same,"viability, T/C",[10],67.6%
same,"viability, T/C",[11],70.9%
same,"viability, T/C",[12],2.8%
same,"viability, T/C",[13],83%
same,"viability, T/C",[14],59.1%
same,"viability, T/C",[15],61%
same,"viability, T/C",[16],60%
same,"viability, T/C",[17],55.9%
same,"viability, T/C",[18],2.82%
same,"viability, T/C",[19],89.5%
same,"viability, T/C",[20],80.2%
same,"viability, T/C",[21],57.5%
same,"viability, T/C",[22],60.5%
same,"viability, T/C",[23],33%
same,"viability, T/C",[24],2.88%
same,"viability, T/C",[25],80.6%
same,"viability, T/C",[26],67.1%
same,"viability, T/C",[27],56.8%
same,"viability, T/C",[28],59.7%
same,"viability, T/C",[29],43.4%
same,"viability, T/C",[30],2.21%
same,"viability, T/C",[31],71.7%
same,"viability, T/C",[32],63.1%
same,"viability, T/C",[33],56.5%
same,"viability, T/C",[34],51.9%
same,"viability, T/C",[35],21.2%
same,"viability, T/C",[36],2.92%
